Measurements as given in PubChem BioAssay (NCI).
Several values for one entry are separate records, joined by “and”; a condition that tells them apart may be missing. Identical values can stand only once.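 Dose response: 5 concentrations. Exposure: 48 h. Format: 96-well plates. Endpoint: linear interpolation; highest concentration if not reached. At the GI50, growth is halved. TGI denotes the concentration required for complete inhibition of growth.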

Assays:
Test in all cases: inhibition of tumour cell growth, NCI panel, 48 h; in the data active means GI50 below about 0.43 µM; inactive means the rest
786-0 renal = system: 786-0 renal
A498 renal = system: A498 renal
A549 NSCLC = system: A549 NSCLC
ACHN renal = system: ACHN renal
BT-549 breast = system: BT-549 breast
CAKI-1 renal = system: CAKI-1 renal
COLO 205 colon = system: COLO 205 colon
DU-145 prostate = system: DU-145 prostate
EKVX NSCLC = system: EKVX NSCLC
HCC-2998 colon = system: HCC-2998 colon
HCT-116 colon = system: HCT-116 colon
HCT-15 colon = system: HCT-15 colon
HOP-62 NSCLC = system: HOP-62 NSCLC
HS 578T breast = system: HS 578T breast
HT29 colon = system: HT29 colon
IGROV1 ovarian = system: IGROV1 ovarian
K-562 leukemia = system: K-562 leukemia
KM12 colon = system: KM12 colon
LOX IMVI melanoma = system: LOX IMVI melanoma
M14 melanoma = system: M14 melanoma
MALME-3M melanoma = system: MALME-3M melanoma
MCF7 breast = system: MCF7 breast
MDA-MB-231 breast = system: MDA-MB-231 breast
MDA-MB-435 = system: MDA-MB-435
MOLT-4 leukemia = system: MOLT-4 leukemia
NCI-H226 lung = system: NCI-H226 lung
NCI-H23 lung = system: NCI-H23 lung
NCI-H460 lung = system: NCI-H460 lung
NCI-H522 lung = system: NCI-H522 lung
NCI/ADR-RES ovarian = system: NCI/ADR-RES ovarian
OVCAR-3 ovarian = system: OVCAR-3 ovarian
OVCAR-4 ovarian = system: OVCAR-4 ovarian
OVCAR-5 ovarian = system: OVCAR-5 ovarian
OVCAR-8 ovarian = system: OVCAR-8 ovarian
PC-3 prostate = system: PC-3 prostate
SF-268 CNS = system: SF-268 CNS
SF-295 CNS = system: SF-295 CNS
SF-539 CNS = system: SF-539 CNS
SK-MEL-2 melanoma = system: SK-MEL-2 melanoma
SK-MEL-28 melanoma = system: SK-MEL-28 melanoma
SK-MEL-5 melanoma = system: SK-MEL-5 melanoma
SK-OV-3 ovarian = system: SK-OV-3 ovarian
SN12C renal = system: SN12C renal
SNB-19 CNS = system: SNB-19 CNS
SNB-75 CNS = system: SNB-75 CNS
SW-620 colon = system: SW-620 colon
T-47D breast = system: T-47D breast
TK-10 renal = system: TK-10 renal
U251 CNS = system: U251 CNS
UACC-257 melanoma = system: UACC-257 melanoma
UACC-62 melanoma = system: UACC-62 melanoma
UO-31 renal = system: UO-31 renal
CCRF-CEM leukemia = system: CCRF-CEM leukemia
HL-60(TB) leukemia = system: HL-60(TB) leukemia
HOP-92 NSCLC = system: HOP-92 NSCLC
RXF 393 renal = system: RXF 393 renal

CNC(=O)C(CCc1ccccc1)NC(=O)C(CC(=O)NO)CC(C)C (stereo not drawn)
> 25 µM: TGI (786-0 renal) | TGI (A498 renal) | TGI (A549 NSCLC) | TGI (ACHN renal) | TGI (BT-549 breast) | TGI (CAKI-1 renal) | TGI (COLO 205 colon) | TGI (DU-145 prostate) | TGI (EKVX NSCLC) | TGI (HCC-2998 colon) | TGI (HCT-116 colon) | TGI (HCT-15 colon) | TGI (HOP-62 NSCLC) | TGI (HS 578T breast) | TGI (HT29 colon) | TGI (IGROV1 ovarian) | TGI (K-562 leukemia) | TGI (KM12 colon) | TGI (LOX IMVI melanoma) | TGI (M14 melanoma) | TGI (MALME-3M melanoma) | TGI (MCF7 breast) | TGI (MDA-MB-231 breast) | TGI (MDA-MB-435) | TGI (MOLT-4 leukemia) | TGI (NCI-H226 lung) | TGI (NCI-H23 lung) | TGI (NCI-H460 lung) | TGI (NCI-H522 lung) | TGI (NCI/ADR-RES ovarian) | TGI (OVCAR-3 ovarian) | TGI (OVCAR-4 ovarian) | TGI (OVCAR-5 ovarian) | TGI (OVCAR-8 ovarian) | TGI (PC-3 prostate) | TGI (SF-268 CNS) | TGI (SF-295 CNS) | TGI (SF-539 CNS) | TGI (SK-MEL-2 melanoma) | TGI (SK-MEL-28 melanoma) | TGI (SK-MEL-5 melanoma) | TGI (SK-OV-3 ovarian) | TGI (SN12C renal) | TGI (SNB-19 CNS) | TGI (SNB-75 CNS) | TGI (SW-620 colon) | TGI (T-47D breast) | TGI (TK-10 renal) | TGI (U251 CNS) | TGI (UACC-257 melanoma) | TGI (UACC-62 melanoma) | TGI (UO-31 renal)
inactive: GI50 (786-0 renal) > 25 µM | GI50 (A498 renal) > 25 µM | GI50 (A549 NSCLC) > 25 µM | GI50 (ACHN renal) > 25 µM | GI50 (BT-549 breast) > 25 µM | GI50 (CAKI-1 renal) > 25 µM | GI50 (COLO 205 colon) > 25 µM | GI50 (DU-145 prostate) > 25 µM | GI50 (EKVX NSCLC) 8.31 µM | GI50 (HCC-2998 colon) > 25 µM | GI50 (HCT-116 colon) > 25 µM | GI50 (HCT-15 colon) > 25 µM | GI50 (HOP-62 NSCLC) > 25 µM | GI50 (HS 578T breast) > 25 µM | GI50 (HT29 colon) > 25 µM | GI50 (IGROV1 ovarian) > 25 µM | GI50 (K-562 leukemia) 19.6 µM | GI50 (KM12 colon) > 25 µM | GI50 (LOX IMVI melanoma) > 25 µM | GI50 (M14 melanoma) > 25 µM | GI50 (MALME-3M melanoma) > 25 µM | GI50 (MCF7 breast) > 25 µM | GI50 (MDA-MB-231 breast) > 25 µM | GI50 (MDA-MB-435) > 25 µM | GI50 (MOLT-4 leukemia) > 25 µM | GI50 (NCI-H226 lung) > 25 µM | GI50 (NCI-H23 lung) > 25 µM | GI50 (NCI-H460 lung) > 25 µM | GI50 (NCI-H522 lung) > 25 µM | GI50 (NCI/ADR-RES ovarian) > 25 µM | GI50 (OVCAR-3 ovarian) > 25 µM | GI50 (OVCAR-4 ovarian) > 25 µM | GI50 (OVCAR-5 ovarian) > 25 µM | GI50 (OVCAR-8 ovarian) > 25 µM | GI50 (PC-3 prostate) > 25 µM | GI50 (SF-268 CNS) > 25 µM | GI50 (SF-295 CNS) > 25 µM | GI50 (SF-539 CNS) > 25 µM | GI50 (SK-MEL-2 melanoma) > 25 µM | GI50 (SK-MEL-28 melanoma) > 25 µM | GI50 (SK-MEL-5 melanoma) > 25 µM | GI50 (SK-OV-3 ovarian) > 25 µM | GI50 (SN12C renal) > 25 µM | GI50 (SNB-19 CNS) > 25 µM | GI50 (SNB-75 CNS) > 25 µM | GI50 (SW-620 colon) > 25 µM | GI50 (T-47D breast) > 25 µM | GI50 (TK-10 renal) > 25 µM | GI50 (U251 CNS) > 25 µM | GI50 (UACC-257 melanoma) > 25 µM | GI50 (UACC-62 melanoma) > 25 µM | GI50 (UO-31 renal) > 25 µM

CCN(CC)CCCC(CO)Nc1ccnc2cc(Cl)ccc12 (stereo not drawn)
35.4 µM and 35.3 µM: TGI (SF-539 CNS)
> 100 µM and 85.5 µM: TGI (CAKI-1 renal)
46.6 µM and 45.3 µM: TGI (SF-295 CNS)
> 100 µM and 39.8 µM: TGI (CCRF-CEM leukemia)
> 100 µM and 92.8 µM: TGI (NCI-H226 lung)
44.8 µM and 37.6 µM: TGI (SK-MEL-5 melanoma)
33 µM and 35.2 µM: TGI (UACC-257 melanoma)
77.1 µM and > 100 µM: TGI (OVCAR-3 ovarian)
59.1 µM and 49.9 µM: TGI (MALME-3M melanoma)
30.9 µM and 31.2 µM: TGI (M14 melanoma)
inactive: GI50 (786-0 renal) 54.9 µM and 42.3 µM | GI50 (A498 renal) > 100 µM and 32.7 µM | GI50 (A549 NSCLC) 50.9 µM and 73.7 µM | GI50 (ACHN renal) > 100 µM and 54.1 µM | GI50 (BT-549 breast) 33.8 µM and 30.8 µM | GI50 (CAKI-1 renal) 32.7 µM and 30.7 µM | GI50 (CCRF-CEM leukemia) 45.4 µM and 15 µM | GI50 (COLO 205 colon) 39.9 µM and 34.5 µM | GI50 (DU-145 prostate) > 100 µM | GI50 (EKVX NSCLC) 54.5 µM and 74.2 µM | GI50 (HCT-116 colon) 21.9 µM and 26.3 µM | GI50 (HCT-15 colon) > 100 µM | GI50 (HL-60(TB) leukemia) 24.4 µM and 25 µM | GI50 (HOP-62 NSCLC) 82.4 µM and 68.2 µM | GI50 (HOP-92 NSCLC) 22.6 µM and 20.5 µM | GI50 (HS 578T breast) > 100 µM and 72.5 µM | GI50 (HT29 colon) 32.2 µM and 64.3 µM | GI50 (IGROV1 ovarian) > 100 µM | GI50 (K-562 leukemia) 30.4 µM and 36.3 µM | GI50 (KM12 colon) 49.1 µM and 66.8 µM | GI50 (LOX IMVI melanoma) 30.1 µM and 27.6 µM | GI50 (M14 melanoma) 16.6 µM and 17 µM | GI50 (MALME-3M melanoma) 29.4 µM and 26.5 µM | GI50 (MCF7 breast) 47.9 µM and 56.1 µM | GI50 (MDA-MB-231 breast) 70.3 µM and 57.1 µM | GI50 (MDA-MB-435) 19.5 µM and 20.5 µM | GI50 (MOLT-4 leukemia) 31 µM and 34.3 µM | GI50 (NCI-H226 lung) > 100 µM and 36.5 µM | GI50 (NCI-H460 lung) 66.2 µM and 82.7 µM | GI50 (NCI-H522 lung) 56.9 µM and > 100 µM | GI50 (OVCAR-3 ovarian) 28.3 µM and 32.6 µM | GI50 (OVCAR-4 ovarian) > 100 µM and 58.2 µM | GI50 (OVCAR-8 ovarian) 38.5 µM and 56.1 µM | GI50 (PC-3 prostate) 66.2 µM and 34.4 µM | GI50 (RXF 393 renal) 35.8 µM and 41.1 µM | GI50 (SF-268 CNS) 64.3 µM and 75.7 µM | GI50 (SF-295 CNS) 18.9 µM and 18 µM | GI50 (SF-539 CNS) 15.9 µM and 17.3 µM | GI50 (SK-MEL-2 melanoma) > 100 µM and 90.2 µM | GI50 (SK-MEL-28 melanoma) 25 µM and > 100 µM | GI50 (SK-MEL-5 melanoma) 20 µM and 18 µM | GI50 (SK-OV-3 ovarian) > 100 µM and 91.5 µM | GI50 (SN12C renal) > 100 µM and 48.5 µM | GI50 (SNB-19 CNS) > 100 µM | GI50 (SNB-75 CNS) > 100 µM | GI50 (SW-620 colon) 50.6 µM and > 100 µM | GI50 (T-47D breast) > 100 µM | GI50 (TK-10 renal) 46 µM and 32.4 µM | GI50 (U251 CNS) 67.6 µM and 70.8 µM | GI50 (UACC-257 melanoma) 18.1 µM and 19.2 µM | GI50 (UACC-62 melanoma) 22.2 µM and 37.7 µM | GI50 (UO-31 renal) > 100 µM
42.7 µM and 43.2 µM: TGI (MDA-MB-435)
57.5 µM and > 100 µM: TGI (SK-MEL-28 melanoma)
73.7 µM and 80.1 µM: TGI (HCT-116 colon)
59.6 µM and 51.5 µM: TGI (LOX IMVI melanoma)
> 100 µM: TGI (786-0 renal) | TGI (A498 renal) | TGI (A549 NSCLC) | TGI (ACHN renal) | TGI (BT-549 breast) | TGI (COLO 205 colon) | TGI (DU-145 prostate) | TGI (EKVX NSCLC) | TGI (HCT-15 colon) | TGI (HL-60(TB) leukemia) | TGI (HOP-62 NSCLC) | TGI (HS 578T breast) | TGI (HT29 colon) | TGI (IGROV1 ovarian) | TGI (K-562 leukemia) | TGI (KM12 colon) | TGI (MCF7 breast) | TGI (MDA-MB-231 breast) | TGI (MOLT-4 leukemia) | TGI (NCI-H460 lung) | TGI (NCI-H522 lung) | TGI (OVCAR-4 ovarian) | TGI (OVCAR-8 ovarian) | TGI (PC-3 prostate) | TGI (RXF 393 renal) | TGI (SF-268 CNS) | TGI (SK-MEL-2 melanoma) | TGI (SK-OV-3 ovarian) | TGI (SN12C renal) | TGI (SNB-19 CNS) | TGI (SNB-75 CNS) | TGI (SW-620 colon) | TGI (T-47D breast) | TGI (TK-10 renal) | TGI (U251 CNS) | TGI (UO-31 renal)
> 100 µM and 88.5 µM: TGI (HOP-92 NSCLC)
49.6 µM and > 100 µM: TGI (UACC-62 melanoma)
